Experimental data: ChEMBL document CHEMBL3822377, “Locking PDK1 in DFG-out conformation through 2-oxo-indole containing molecules: Another tools to fight glioblastoma” (Eur J Med Chem, 2016)

Legend:
[1] = molecular target: CDK7/Cyclin H/MNAT1 (Homo sapiens) (UniProt P51946+P50613+P51948); experiment: Inhibition of His-tagged full-length human recombinant CDK7/Cyclin H/MNAT1 expressed in baculovirus system at 100 nM by adapta assay
[2] = molecular target: CDK9/cyclin T1 (Homo sapiens) (UniProt O60563+P50750); experiment: Inhibition of His-tagged full-length human recombinant CDK9/Cyclin T1 expressed in baculovirus system at 100 nM by adapta assay
[3] = molecular target: Tyrosine-protein kinase BTK (Homo sapiens) (UniProt Q06187); experiment: Inhibition of His-tagged full-length human BTK expressed in baculovirus system at 100 nM by Z-lyte assay
[4] = molecular target: RAC-beta serine/threonine-protein kinase (Homo sapiens) (UniProt P31751); experiment: Inhibition of His-tagged full-length human AKT2 expressed in baculovirus system at 100 nM by Z-lyte assay
[5] = molecular target: T1, AMP-activated protein kinase, AMPK (Homo sapiens) (UniProt P54646+O43741+P54619+Q9UGJ0+Q9Y478+Q13131+Q9UGI9); experiment: Inhibition of GST/His-tagged full-length human recombinant AMPK A1/B1/G1 expressed in baculovirus system at 100 nM by Z-lyte assay
[6] = molecular target: T1, AMP-activated protein kinase, AMPK (Homo sapiens); experiment: Inhibition of GST/His-tagged full-length human recombinant AMPK A2/B1/G1 expressed in baculovirus system at 100 nM by Z-lyte assay
[7] = molecular target: Serine/threonine-protein kinase B-raf (Homo sapiens) (UniProt P15056); experiment: Inhibition of GST-tagged full-length human BRAF expressed in baculovirus system at 100 nM by Z-lyte assay
[8] = molecular target: Cyclin-dependent kinase 1/cyclin B1 (Homo sapiens) (UniProt P06493+P14635); experiment: Inhibition of His-tagged full-length human CDK1/Cyclin B expressed in baculovirus system at 100 nM by Z-lyte assay
[9] = molecular target: CDK2/Cyclin A2 (Homo sapiens) (UniProt P24941+P20248); experiment: Inhibition of GST-tagged human CDK2/Cyclin A expressed in baculovirus system at 100 nM by Z-lyte assay
[10] = molecular target: Serine/threonine-protein kinase Chk1 (Homo sapiens) (UniProt O14757); experiment: Inhibition of His-tagged full-length human CHEK1 expressed in baculovirus system at 100 nM by Z-lyte assay
[11] = molecular target: Serine/threonine-protein kinase Chk2 (Homo sapiens) (UniProt O96017); experiment: Inhibition of His-tagged full-length human CHEK2 expressed in baculovirus system at 100 nM by Z-lyte assay
[12] = molecular target: Dual specificity protein kinase CLK1 (Homo sapiens) (UniProt P49759); experiment: Inhibition of GST-tagged human CLK1 expressed in Escherichia coli at 100 nM by Z-lyte assay
[13] = molecular target: Casein kinase I isoform alpha (Homo sapiens) (UniProt P48729); experiment: Inhibition of GST-tagged human CSNK1A1 expressed in baculovirus system at 100 nM by Z-lyte assay
[14] = molecular target: Glycogen synthase kinase-3 alpha (Homo sapiens) (UniProt P49840); experiment: Inhibition of GSK3 alpha (unknown origin) at 100 nM by Z-lyte assay
[15] = molecular target: G protein-coupled receptor kinase 5 (Homo sapiens) (UniProt P34947); experiment: Inhibition of GST-tagged full-length human recombinant GRK5 expressed in baculovirus system at 100 nM by Z-lyte assay
[16] = molecular target: Glycogen synthase kinase-3 beta (Homo sapiens) (UniProt P49841); experiment: Inhibition of His-tagged full-length recombinant human GSK3 beta expressed in baculovirus system at 100 nM by Z-lyte assay
[17] = molecular target: Mitogen-activated protein kinase 3 (Homo sapiens) (UniProt P27361); experiment: Inhibition of GST-tagged full-length recombinant human MAPK3 expressed in baculovirus system at 100 nM by Z-lyte assay
[18] = molecular target: Mitogen-activated protein kinase 8 (Homo sapiens) (UniProt P45983); experiment: Inhibition of His-tagged full-length human MAPK8 expressed in baculovirus system at 100 nM by Z-lyte assay
[19] = molecular target: Mitogen-activated protein kinase 9 (Homo sapiens) (UniProt P45984); experiment: Inhibition of His-tagged full-length recombinant human MAPK9 expressed in baculovirus system at 100 nM by Z-lyte assay
[20] = molecular target: Protein kinase C alpha type (Homo sapiens) (UniProt P17252); experiment: Inhibition of His-tagged full-length human PRKACA expressed in Escherichia coli system at 100 nM by Z-lyte assay
[21] = molecular target: Protein kinase C beta type (Homo sapiens) (UniProt P05771); experiment: Inhibition of full-length human PRKCB1 expressed in baculovirus system at 100 nM by Z-lyte assay
[22] = molecular target: Protein kinase C delta type (Homo sapiens) (UniProt Q05655); experiment: Inhibition of full-length recombinant human PRKCD expressed in baculovirus system at 100 nM by Z-lyte assay
[23] = molecular target: Protein kinase C zeta type (Homo sapiens) (UniProt Q05513); experiment: Inhibition of full-length recombinant human PRKCZ expressed in baculovirus system at 100 nM by Z-lyte assay
[24] = molecular target: Rho-associated protein kinase 2 (Homo sapiens) (UniProt O75116); experiment: Inhibition of catalytic recombinant GST-tagged human ROCK2 expressed in baculovirus system at 100 nM by Z-lyte assay
[25] = Induction of apoptosis in human GSC cells assessed as early apoptotic cells by measuring phosphatidylserine externalisation at 10 uM after 7 days by AnnexinV/FITC staining-based flow cytometry (reference value: 6.69%); format: functional
[26] = molecular target: T2, 3-phosphoinositide-dependent protein kinase 1 (Homo sapiens) (UniProt O15530); experiment: Inhibition of PDK1 in human GSC cells assessed as reduction in AKT phosphorylation at Thr308 residue at 10 uM measured at 120 mins by ELISA relative to control; format: cell-based
T2 sequence (whole entry): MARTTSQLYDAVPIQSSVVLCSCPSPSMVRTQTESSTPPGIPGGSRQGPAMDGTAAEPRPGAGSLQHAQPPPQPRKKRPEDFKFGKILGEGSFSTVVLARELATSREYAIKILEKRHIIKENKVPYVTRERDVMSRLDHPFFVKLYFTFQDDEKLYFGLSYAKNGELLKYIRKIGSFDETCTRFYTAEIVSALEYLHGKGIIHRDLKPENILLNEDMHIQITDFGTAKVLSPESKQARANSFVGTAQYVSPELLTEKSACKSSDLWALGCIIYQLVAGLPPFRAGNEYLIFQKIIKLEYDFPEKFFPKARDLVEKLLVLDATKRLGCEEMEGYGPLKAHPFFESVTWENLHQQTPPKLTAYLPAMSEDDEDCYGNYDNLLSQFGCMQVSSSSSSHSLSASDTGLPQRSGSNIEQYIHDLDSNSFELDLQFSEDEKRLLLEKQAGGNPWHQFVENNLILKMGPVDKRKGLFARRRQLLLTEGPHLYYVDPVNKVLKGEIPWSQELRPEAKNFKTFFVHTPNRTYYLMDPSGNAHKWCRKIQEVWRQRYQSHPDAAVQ

Chain of Glycogen synthase kinase-3 beta (Homo sapiens) (P49841 whole entry, looked up): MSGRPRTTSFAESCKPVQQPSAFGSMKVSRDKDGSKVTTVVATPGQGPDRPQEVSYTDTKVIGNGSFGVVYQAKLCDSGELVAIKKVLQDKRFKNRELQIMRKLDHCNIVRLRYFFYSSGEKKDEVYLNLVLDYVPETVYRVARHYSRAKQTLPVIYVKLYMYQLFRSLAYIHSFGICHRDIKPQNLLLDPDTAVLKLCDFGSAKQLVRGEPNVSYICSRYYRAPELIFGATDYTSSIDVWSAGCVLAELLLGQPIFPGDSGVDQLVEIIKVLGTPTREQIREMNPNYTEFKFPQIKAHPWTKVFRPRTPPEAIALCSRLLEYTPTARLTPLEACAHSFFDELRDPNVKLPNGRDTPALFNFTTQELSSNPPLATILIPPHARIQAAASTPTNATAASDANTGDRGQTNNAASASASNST
Chain of RAC-beta serine/threonine-protein kinase (Homo sapiens) (P31751 whole entry): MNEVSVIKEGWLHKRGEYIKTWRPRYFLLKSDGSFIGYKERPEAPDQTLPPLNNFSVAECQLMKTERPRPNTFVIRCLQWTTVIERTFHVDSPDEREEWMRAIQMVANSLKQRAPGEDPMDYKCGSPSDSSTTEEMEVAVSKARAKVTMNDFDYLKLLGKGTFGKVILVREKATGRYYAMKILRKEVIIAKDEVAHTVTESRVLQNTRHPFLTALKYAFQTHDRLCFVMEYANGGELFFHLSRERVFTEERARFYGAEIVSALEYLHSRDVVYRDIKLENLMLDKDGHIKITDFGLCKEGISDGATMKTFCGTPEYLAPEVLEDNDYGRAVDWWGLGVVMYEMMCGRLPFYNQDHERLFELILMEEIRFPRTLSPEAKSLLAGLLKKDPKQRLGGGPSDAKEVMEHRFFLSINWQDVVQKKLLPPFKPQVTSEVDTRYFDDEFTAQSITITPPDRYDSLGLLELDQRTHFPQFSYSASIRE
Chain of Dual specificity protein kinase CLK1 (Homo sapiens) (P49759 whole entry, looked up, canonical isoform): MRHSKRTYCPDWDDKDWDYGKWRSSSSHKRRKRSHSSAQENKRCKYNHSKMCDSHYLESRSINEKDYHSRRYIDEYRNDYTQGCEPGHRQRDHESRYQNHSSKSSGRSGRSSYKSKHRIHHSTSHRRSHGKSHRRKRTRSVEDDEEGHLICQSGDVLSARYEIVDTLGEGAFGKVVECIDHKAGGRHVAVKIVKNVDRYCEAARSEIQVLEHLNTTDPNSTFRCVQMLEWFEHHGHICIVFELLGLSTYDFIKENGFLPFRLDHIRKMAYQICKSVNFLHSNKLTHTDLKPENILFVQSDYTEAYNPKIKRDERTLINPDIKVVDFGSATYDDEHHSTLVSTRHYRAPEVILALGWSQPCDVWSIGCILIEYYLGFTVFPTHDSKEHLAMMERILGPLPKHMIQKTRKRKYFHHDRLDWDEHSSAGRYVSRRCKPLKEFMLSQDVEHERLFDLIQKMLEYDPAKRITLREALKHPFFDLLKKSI
Chain of Rho-associated protein kinase 2 (Homo sapiens) (O75116 whole entry, looked up): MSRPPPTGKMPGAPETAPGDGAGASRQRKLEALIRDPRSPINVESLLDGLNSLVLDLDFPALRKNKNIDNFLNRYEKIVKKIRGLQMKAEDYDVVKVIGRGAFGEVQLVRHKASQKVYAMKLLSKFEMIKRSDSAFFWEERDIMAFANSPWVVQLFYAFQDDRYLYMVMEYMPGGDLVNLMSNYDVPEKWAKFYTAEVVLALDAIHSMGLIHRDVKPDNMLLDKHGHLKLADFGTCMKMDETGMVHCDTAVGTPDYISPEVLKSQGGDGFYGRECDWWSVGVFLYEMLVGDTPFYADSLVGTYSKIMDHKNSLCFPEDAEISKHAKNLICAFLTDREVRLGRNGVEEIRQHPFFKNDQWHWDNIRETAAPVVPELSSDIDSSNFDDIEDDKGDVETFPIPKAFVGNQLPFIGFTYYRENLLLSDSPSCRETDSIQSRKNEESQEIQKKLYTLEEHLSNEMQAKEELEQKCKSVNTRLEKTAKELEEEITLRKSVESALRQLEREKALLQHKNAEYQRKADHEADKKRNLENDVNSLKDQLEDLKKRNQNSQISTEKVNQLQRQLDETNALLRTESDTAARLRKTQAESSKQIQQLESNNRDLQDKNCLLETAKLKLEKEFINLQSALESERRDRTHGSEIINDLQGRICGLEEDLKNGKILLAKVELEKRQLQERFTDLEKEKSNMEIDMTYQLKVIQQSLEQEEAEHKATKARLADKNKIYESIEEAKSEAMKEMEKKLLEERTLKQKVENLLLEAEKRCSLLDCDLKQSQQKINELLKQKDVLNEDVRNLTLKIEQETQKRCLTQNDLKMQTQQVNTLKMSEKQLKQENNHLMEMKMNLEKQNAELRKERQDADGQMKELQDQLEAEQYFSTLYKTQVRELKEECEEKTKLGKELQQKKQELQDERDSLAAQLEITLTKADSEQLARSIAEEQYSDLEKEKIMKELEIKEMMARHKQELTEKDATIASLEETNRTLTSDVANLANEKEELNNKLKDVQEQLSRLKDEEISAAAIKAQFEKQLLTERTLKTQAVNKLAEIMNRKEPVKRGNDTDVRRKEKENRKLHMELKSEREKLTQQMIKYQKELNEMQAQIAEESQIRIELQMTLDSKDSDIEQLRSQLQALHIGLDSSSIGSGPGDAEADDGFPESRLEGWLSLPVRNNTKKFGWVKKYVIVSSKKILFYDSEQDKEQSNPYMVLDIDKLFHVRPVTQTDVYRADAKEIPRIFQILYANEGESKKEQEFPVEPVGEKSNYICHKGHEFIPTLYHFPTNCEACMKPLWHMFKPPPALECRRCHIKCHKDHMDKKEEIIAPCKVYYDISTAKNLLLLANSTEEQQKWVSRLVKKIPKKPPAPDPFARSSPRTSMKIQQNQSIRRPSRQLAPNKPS
Chain of Mitogen-activated protein kinase 3 (Homo sapiens) (P27361 whole entry): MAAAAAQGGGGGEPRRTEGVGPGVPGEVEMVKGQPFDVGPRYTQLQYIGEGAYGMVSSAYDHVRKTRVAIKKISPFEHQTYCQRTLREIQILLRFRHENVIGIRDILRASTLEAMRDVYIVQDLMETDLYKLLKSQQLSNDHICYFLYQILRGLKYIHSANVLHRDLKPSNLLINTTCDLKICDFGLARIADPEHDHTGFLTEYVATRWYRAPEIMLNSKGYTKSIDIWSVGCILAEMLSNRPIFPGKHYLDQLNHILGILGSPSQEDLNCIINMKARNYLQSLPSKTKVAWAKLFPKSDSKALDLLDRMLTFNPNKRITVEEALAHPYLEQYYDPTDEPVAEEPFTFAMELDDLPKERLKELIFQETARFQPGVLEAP
Chain of Serine/threonine-protein kinase B-raf (Homo sapiens) (P15056 whole entry): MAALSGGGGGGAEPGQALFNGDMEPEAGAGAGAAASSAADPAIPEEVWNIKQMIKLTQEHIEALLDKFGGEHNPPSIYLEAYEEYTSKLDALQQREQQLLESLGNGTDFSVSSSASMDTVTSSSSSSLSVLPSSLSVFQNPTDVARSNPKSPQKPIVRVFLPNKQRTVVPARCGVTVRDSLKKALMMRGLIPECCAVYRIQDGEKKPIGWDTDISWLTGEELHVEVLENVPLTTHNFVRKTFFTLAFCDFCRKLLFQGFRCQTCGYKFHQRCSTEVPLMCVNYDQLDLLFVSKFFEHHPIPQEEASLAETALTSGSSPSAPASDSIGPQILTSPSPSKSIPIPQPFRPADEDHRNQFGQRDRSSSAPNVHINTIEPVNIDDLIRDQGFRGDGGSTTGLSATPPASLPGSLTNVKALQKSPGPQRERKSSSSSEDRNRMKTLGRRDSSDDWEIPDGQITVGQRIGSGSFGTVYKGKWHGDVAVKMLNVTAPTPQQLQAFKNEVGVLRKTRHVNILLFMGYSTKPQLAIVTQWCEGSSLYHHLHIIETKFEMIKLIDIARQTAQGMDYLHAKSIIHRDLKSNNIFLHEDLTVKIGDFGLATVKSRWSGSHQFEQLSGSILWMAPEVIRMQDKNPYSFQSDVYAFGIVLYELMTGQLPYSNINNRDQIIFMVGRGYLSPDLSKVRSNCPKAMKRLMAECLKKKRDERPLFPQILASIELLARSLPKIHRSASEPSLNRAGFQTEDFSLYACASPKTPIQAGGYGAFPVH
Chain of Serine/threonine-protein kinase Chk2 (Homo sapiens) (O96017 whole entry): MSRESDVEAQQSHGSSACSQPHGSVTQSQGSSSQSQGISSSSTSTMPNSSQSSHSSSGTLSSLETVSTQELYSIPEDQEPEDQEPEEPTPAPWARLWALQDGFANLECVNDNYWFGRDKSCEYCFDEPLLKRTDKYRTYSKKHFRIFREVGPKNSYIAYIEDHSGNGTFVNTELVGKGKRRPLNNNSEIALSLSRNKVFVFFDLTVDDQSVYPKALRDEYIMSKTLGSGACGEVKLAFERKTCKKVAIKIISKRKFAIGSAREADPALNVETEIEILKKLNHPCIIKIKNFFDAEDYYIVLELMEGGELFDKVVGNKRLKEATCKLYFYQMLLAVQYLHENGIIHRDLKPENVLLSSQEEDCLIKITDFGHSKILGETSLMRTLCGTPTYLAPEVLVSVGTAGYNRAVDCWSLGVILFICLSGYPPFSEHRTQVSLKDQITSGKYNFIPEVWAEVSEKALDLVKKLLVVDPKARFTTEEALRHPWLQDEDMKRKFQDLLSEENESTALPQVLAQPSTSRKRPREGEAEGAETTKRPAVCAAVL
Chain of Mitogen-activated protein kinase 9 (Homo sapiens) (P45984 whole entry, looked up): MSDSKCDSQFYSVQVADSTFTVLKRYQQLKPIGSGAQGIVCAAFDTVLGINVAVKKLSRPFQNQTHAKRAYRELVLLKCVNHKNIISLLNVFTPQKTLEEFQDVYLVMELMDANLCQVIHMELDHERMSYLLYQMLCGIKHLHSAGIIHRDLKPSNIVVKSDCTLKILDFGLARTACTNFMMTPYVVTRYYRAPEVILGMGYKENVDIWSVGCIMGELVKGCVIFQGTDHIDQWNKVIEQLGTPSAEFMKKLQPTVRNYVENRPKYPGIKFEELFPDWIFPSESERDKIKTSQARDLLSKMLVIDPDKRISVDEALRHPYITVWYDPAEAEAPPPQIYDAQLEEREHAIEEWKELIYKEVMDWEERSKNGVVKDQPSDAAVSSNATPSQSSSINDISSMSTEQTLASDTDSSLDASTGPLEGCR

`O=C(CNC(=O)c1cccn(Cc2ccc(F)c(F)c2)c1=O)Nc1ccc2c(c1)/C(=C/c1cnc[nH]1)C(=O)N2` gave an inhibition [1] of 1%, an inhibition [2] of 6% and an inhibition [3] of -3%. For the same molecule, the inhibition [4] was -4%, the inhibition [5] was 7% and the inhibition [6] was 10%. The inhibition [7] was 17%, the inhibition [8] was 6% and the inhibition [9] was 4%. For the same molecule, the inhibition [10] was 6%, the inhibition [11] was 4% and the inhibition [12] was -2%. It also gave an inhibition [13] of -2%, an inhibition [14] of 43% and an inhibition [15] of -4%. The inhibition [16] was 24%, the inhibition [17] was -3% and the inhibition [18] was 12%. For the same molecule, the inhibition [19] was -1%, the inhibition [20] was -5% and the inhibition [21] was -10%. It also gave an inhibition [22] of -7%, an inhibition [23] of -3% and an inhibition [24] of 2%. The Activity [25] was 16.15% and the inhibition [26] was 80.4%.
